Here are results for one molecule from PMC8126241, “Active Components from Cassia abbreviata Prevent HIV-1 Entry by Distinct Mechanisms of Action” (International Journal of Molecular Sciences, 2021).

Where two headings read alike, the source gives them in different places.

The subject of assay [1] is Influenza A/H3N2 A/HK/7/87. Kind of assay: Broad spectrum antiviral activity, MDCK cells. The following applies: Influenza A virus. It counts as cell-based.
The test system of assay [2] is pseudotype virus pNL4.3ΔEnvLuc-HXB2. Kind of assay: microbe, parasite or virus in culture. The following applies: Human immunodeficiency virus 1, HXB2, read-out: IC50 HIV-1 entry.
The subject of assay [3] is Feline herpes virus. Kind of assay: Broad spectrum antiviral activity, CRFK cells. It counts as cell-based.
Assay [4] has as its target T1, CXCR4 (Homo sapiens, UniProt P61073).
T1 construct: host or cells: U373-CD4-CXCR4 cells
Kind of assay: Binding competition with anti-CXCR4 antibody 12G5. The following applies: anti-CXCR4 antibody 12G5, U373-CD4-CXCR4 cells.

The test system of assay [5] is Herpes simplex virus-1 (KOS). Kind of assay: Broad spectrum antiviral activity, HEL cells. It counts as cell-based.
In assay [6] the test system is Influenza A/H1N1 A/Ned/378/05. Kind of assay: Broad spectrum antiviral activity, MDCK cells. The following applies: Influenza A virus. It counts as cell-based.
Assay [7] concerns Yellow fever virus. Kind of assay: microbe, parasite or virus in culture. The following applies: Vero. It counts as cell-based.
The target of assay [8] is T2, CD4 (Homo sapiens, UniProt P01730).
T2 construct: host or cells: U373-CD4-CXCR4 and U373-CD4-CCR5 cells
Kind of assay: Binding competition with anti-CD4 antibodies. The following applies: antibodies OKT4 and RPA-T4, U373-CD4-CXCR4/CCR5 cells. The method, then:
Binding competition between increasing concentrations of compounds and FITC-conjugated mouse anti-human CD4 clone RPA-4 (Biolegend, Amsterdam, Netherlands), PE-conjugated mouse anti-Human CXCR4 clone 12G5, and PE-conjugated mouse anti-human CCR5 clone 2D7 (BD Pharma, Aalst, Belgium) to U373-CD4-CXCR4 and U373-CD4-CCR5 cells was first tested by flow cytometry (FACSCanto). […] After 1 h of incubation at 4 °C, cells were washed with FACS buffer (1% bovine serum albumin, 0.1% N3Na in PBS, Sigma), and Mean Fluorescence Intensity (MFI) was measured. […] Internalization was stopped after 30 min by addition of NaN3 (0.1%) on ice. Cells were stained with anti-human CXCR4 clone 4G10 (BD, Belgium) or anti-human CCR5 (CD195) clone T21/8, (eBioscience, Asse, Belgium), Near-IR fluorescent reactive dye during 1 h at 4 °C, washed with FACS buffer, and a secondary PE-conjugated goat anti-mouse antibody (Jackson ImmunoResearch, West Grove, PA, USA).

In assay [9] the test system is Respiratory syncytial virus. Kind of assay: Broad spectrum antiviral activity, HeLa cells. It counts as cell-based. The following applies: human respiratory syncytial virus.
Assay [10] concerns Coxsackie virus B4. Kind of assay: Broad spectrum antiviral activity, vero cells. The following applies: Enterovirus B. It counts as cell-based.
Assay [11] deals with Human corona virus. Kind of assay: Broad spectrum antiviral activity, HEL cells. It counts as cell-based.
Assay [12] relates to HIV-1 ADA-M. Kind of assay: Dual chamber transmission assay, HeLa upper chamber / TZM-bl lower chamber. The following applies: dual-chamber system, at IC50 concentration. It counts as cell-based. The method, then:
Dual chamber transmission assay was performed as previously described. HeLa cells were seeded into an upper chamber of a transwell plate (Sigma-Aldrich, Liège, Belgium), while TZM-bl cells were seeded in the lower chamber. Trans Epithelial Electric Resistance (TEER) was measured using Millicell-ERS Volt-Ohm Meter. HIV-1 ADA-M (200 pg) and drugs were added to the upper chamber after 4 days when TEER reached 150 Ohm/cm^2. 24 h after infection luciferase value of TZM-bl cells lysate was measured using the Luciferase System Kit and the POLARstar Omega Plate Reader. Data were analyzed using GraphPrism. The HIV-1 DC-SIGN transmission assay was performed as previously described.

For assay [13], the system named is Vesicular stomatitis virus. Kind of assay: microbe, parasite or virus in culture. It counts as cell-based.
For assay [14], the system named is non-B HIV-1 primary clinical isolate #2. Kind of assay: microbe, parasite or virus in culture. The following applies: Human immunodeficiency virus 1, PBMC, 168 h, read-out: IC50 non-B HIV-1 primary clinical isolate (second named).
The test system of assay [15] is Punta toro virus. Kind of assay: Broad spectrum antiviral activity, vero cells. It counts as cell-based.
The test system of assay [16] is Herpes simplex virus-2 (G). Kind of assay: Broad spectrum antiviral activity, HEL cells. The following applies: Human alphaherpesvirus 2, HEL. It counts as cell-based.
Assay [17] has as its system Para-influenza-3 virus. Kind of assay: organism not typed. The following applies: vero cells. It counts as cell-based.

T1 sequence (P61073 whole entry): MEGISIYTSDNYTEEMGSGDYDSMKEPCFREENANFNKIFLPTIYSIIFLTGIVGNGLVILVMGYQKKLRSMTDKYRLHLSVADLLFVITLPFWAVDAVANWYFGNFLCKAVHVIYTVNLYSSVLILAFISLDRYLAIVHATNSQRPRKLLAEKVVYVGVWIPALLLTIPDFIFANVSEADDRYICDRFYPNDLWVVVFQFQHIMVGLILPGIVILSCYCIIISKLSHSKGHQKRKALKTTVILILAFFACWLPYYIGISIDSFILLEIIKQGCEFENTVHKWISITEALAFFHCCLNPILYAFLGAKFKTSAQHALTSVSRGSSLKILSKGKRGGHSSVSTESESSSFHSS

Consider `Oc1cc(O)cc(/C=C/c2ccc(O)c(O)c2)c1` [piceatannol, trans-3,3′,4,5′-tetrahydroxystilbene], for which the IC50 (as a rule, the concentration needed to halve the response being measured) in assay [1] was above 100 µM; in assay [2], 10.3 ± 5.74 µM; in [3] it was above 100 µM; in assay [5], 47.5 ± 3.5 µM; in assay [5] (Human alphaherpesvirus 1, HEL), around 45 µM; in assay [6], above 100 µM. Further, the half-maximal inhibitory concentration (IC50) in [7] is above 100 µM; in [9], above 100 µM; in [10], above 100 µM; in assay [11] it was above 100 µM; in assay [13] it was 79.2 ± 17 µM; in assay [13] (Vesicular stomatitis virus, U-87 MG), 79.2 ± 17.2 µM. Besides, the IC50 is 8.04 ± 3.07 µM in [14], above 100 µM in [15], around 45 µM in assay [16] and above 100 µM in [17]. Moreover, the “Inhibition of CXCR4 binding” value in assay [4] is listed as “neither CE nor piceatannol did”. The “Inhibition of anti-CD4 antibodies binding to CD4” value in assay [8] was “neither CE nor piceatannol did”. Also, the “Decrease of HIV-1 infection” value in assay [12] is reported as 33%. Moreover, the “HIV-1 infection of TZM-Bl cells relative to control (100)” value in assay [12] (24 h post-infection) is 66.9%.
